Laboratory results published in publication PMC10353390, “Biological and Structural Analyses of New Potent Allosteric Inhibitors of HIV-1 Integrase” (Antimicrobial Agents and Chemotherapy, 2023).

Tests used:
[1] = tested on: HIV-1 strains resistant to INSTIs, NRTIs, NNRTIs or PIs; format: cell-based
Protocol: To this end, we used both recombinant viruses constructed by introducing described drug resistance mutations into NL4-3 HIV-1 clone as well as drug-resistant clinical HIV-1 isolates.
(§1) MT4 cells growing exponentially at the density of 10^6/mL were infected with HIV-1 strain NL4-3 at a multiplicity of infection (MOI) of 0.001 for 2 h in the presence of different concentrations of compounds, and the CellTiter-Glo luminescent reagent (Promega) was used to quantify cell viability as described previously ([12]).

[2] = tested on: recombinant NL4-3 viruses with polymorphisms at IN positions 124 and 125; assay: Multiple-round infection of MT4 cells with recombinant NL4-3 viruses polymorphic at IN positions 124 and 125; format: cell-based, HIV-1
Excerpt: Located on the HIV-1 IN CCD dimerization interface, the principal INLAI binding pocket overlaps with a hot spot of amino acid sequence polymorphism involving IN residues 124 and 125 ([16]). To test if the new INLAIs maintained antiviral activity against major polymorphisms, we introduced all major combinations of residues found in circulating HIV-1 strains at positions 124 and 125 into NL4-3 HIV-1 molecular clone. In total, we evaluated 15 such combinations that collectively covered 98% of all HIV-1 clade polymorphisms involving these positions ([48]). To gauge effects on the antiviral activity, we calculated the EC50 fold change (FC) relative to wild type NL4-3 HIV-1 strain that features Thr124 and Thr125 (TT; specific polymorphisms are referred to by a single letter amino acid code).
as §1

[3] = tested on: NL4-3 HIV-1 strain; assay: Multiple-round infection assay in MT4 cells, NL4-3; format: cell-based; settings: MT4 cells
[4] = tested on: NL4-3 HIV-1 with INLAI-selected IN single point mutations; format: cell-based
[5] = tested on: VSV-G-pseudotyped NL4-3Δenv-luc; assay: microbe, parasite or virus in culture; format: cell-based, HIV-1
[6] = target: T1, HIV-1 IN (Human immunodeficiency virus type 1 group M subtype B, UniProt P12497); assay: HTRF IN multimerization assay; format: biochemical; settings: mean ± SD
T1 construct: made in house
Excerpt: A key property of INLAIs is the ability to promote HIV-1 IN homo-multimerization ([39][–][42]). […] The maximal signal (plateau) in our IN aggregation assay corresponds to the highest HTRF signal increase under saturating INLAI concentration, relative to baseline level. Thus, MUT916, MUT884, MUT871, and MUT872 increased HIV-1 IN aggregation 3.7 to 4.4-fold, while BDM-2, BI-224436, and S-I-82 did so 5 to 6-fold (Table 1).

[7] = target: CCD of HIV-1 IN and IBD of LEDGF/p75 (Human immunodeficiency virus type 1 group M subtype B, UniProt P12497); assay: biochemical
Protocol: (§2) The INLAIs were tested for the ability to inhibit the HIV-1 IN-LEDGF/p75 interaction in a homogeneous time-resolved fluorescence (HTRF) assay. Our assays used either full-length IN and LEDGF/p75 proteins or their respective minimally sufficient interaction domains: the CCD of HIV-1 IN and the IBD of LEDGF/p75 (Table 1).
(§3) HTRF-based CCD-IBD interaction, IN-LEDGF/p75 interaction and IN multimerization assays were performed as described previously ([12]).

[8] = target: HIV-1 IN-LEDGF/p75 interaction (Human immunodeficiency virus type 1 group M subtype B, UniProt P12497); assay: biochemical
Protocol: as §2, §3

[9] = tested on: HXB2 HIV-1 strain; assay: Multiple-round infection assay in MT4 cells, HXB2; format: cell-based; settings: Human immunodeficiency virus 1, HXB2; multiple-round infection, MT4 cells; mean ± SD, n > 5; read-out: EC50 HXB2
Protocol: Antiretroviral activity of BDM-2 and its analogs was first evaluated in lymphoblastoid cell line MT4 and in primary human T lymphocytes using NL4-3 and HXB2 laboratory HIV-1 isolates.
as §1

[10] = Cytotoxicity assay in MT4 cells; format: cell-based; settings: human, MT4 cells (proliferating human T-cell line), CellTiter-Glo
Excerpt: Growth inhibition was monitored in a proliferating human T-cell line (MT4) with different concentrations of compounds, using the CellTiter-Glo luminescent reagent (Promega), as previously described ([12]).

[11] = tested on: primary HIV-1 isolates with polymorphisms at IN positions 124 and 125; assay: Multiple-round infection of MT4 cells with primary HIV-1 isolates polymorphic at IN positions 124 and 125; format: cell-based; settings: primary isolate
Protocol: Next, we evaluated the potency of the BDM-2 series of INLAIs against several primary HIV-1 isolates with polymorphisms at IN positions 124 and 125.
as §1

[12] = INSTI-resistant, NL4-3 background

Structure (SMILES): Cc1ccc(C2CC2)c(-c2ccc3c(c2)CCCO3)c1[C@H](OC1CC1)C(=O)O [MUT872]
- Fold change in EC50 relative to NL4-3, E92Q [1, 12]: 1
- Fold change in EC50 relative to NL4-3, G140S [1, 12]: 1
- Fold change in EC50 relative to NL4-3, G140S/Q148H [1, 12]: 1
- Fold change in EC50 relative to NL4-3, N155H [1, 12]: 1
- Fold change in EC50 relative to NL4-3, Q148H [1, 12]: 1
- Fold change in EC50 relative to NL4-3, Y143R [1, 12]: 0.5
- Fold change in EC50 relative to NL4-3, NLAY351717 ([1]; NRTI-resistant clone): 1
- Fold change in EC50 relative to NL4-3, NLAY351753 ([1]; NRTI/NNRTI-resistant clone): 1
- Fold change in EC50 relative to NL4-3, K103N/Y181C ([1]; NRTI/NNRTIs group, NL4-3 background): 1
- Fold change in EC50 relative to NL4-3, ARP-4595 ([1]; PI-resistant virus): 1
- Fold change in EC50 relative to NL4-3, ARP-4596 ([1]; PI-resistant virus): 1
- Fold change in EC50 relative to NL4-3, ARP-11801 ([1]; PI-resistant virus): 2
- Fold change in EC50 relative to NL4-3, ARP-11803 ([1]; PI-resistant virus): 1
- Fold change in EC50 relative to NL4-3, ARP-11807 ([1]; PI-resistant virus): 1
- Fold change in EC50 relative to NL4-3, ARP-11808 ([1]; PI-resistant virus): 2
- Fold change in EC50 relative to parental NL4-3, AA ([2]; recombinant NL4-3, IN 124/125 AA): 1
- Fold change in EC50 relative to parental NL4-3, AM ([2]; recombinant NL4-3, IN 124/125 AM): 0.3
- Fold change in EC50 relative to parental NL4-3, AT ([2]; recombinant NL4-3, IN 124/125 AT): 1
- Fold change in EC50 relative to parental NL4-3, AV ([2]; recombinant NL4-3, IN 124/125 AV): 0.5
- Fold change in EC50 relative to parental NL4-3, GA ([2]; recombinant NL4-3, IN 124/125 GA): 2
- Fold change in EC50 relative to parental NL4-3, GT ([2]; recombinant NL4-3, IN 124/125 GT): 2
- Fold change in EC50 relative to parental NL4-3, NA ([2]; recombinant NL4-3, IN 124/125 NA): 1
- Fold change in EC50 relative to parental NL4-3, NT ([2]; recombinant NL4-3, IN 124/125 NT): 1
- Fold change in EC50 relative to parental NL4-3, NV ([2]; recombinant NL4-3, IN 124/125 NV): 1
- Fold change in EC50 relative to parental NL4-3, SA ([2]; recombinant NL4-3, IN 124/125 SA): 1
- Fold change in EC50 relative to parental NL4-3, ST ([2]; recombinant NL4-3, IN 124/125 ST): 1
- Fold change in EC50 relative to parental NL4-3, TA ([2]; recombinant NL4-3, IN 124/125 TA): 1
- Fold change in EC50 relative to parental NL4-3, TM ([2]; recombinant NL4-3, IN 124/125 TM): 0.2
- Fold change in EC50 relative to parental NL4-3, TV ([2]; recombinant NL4-3, IN 124/125 TV): 1
- EC90 ([3]; Human immunodeficiency virus 1, NL43, multiple-round infection, from dose response curves, read-out: EC90 NL4-3): 61 ± 19 nM
- EC50 ([3]; Human immunodeficiency virus 1, NL43, multiple-round infection, mean ± SD, n > 5, read-out: EC50 NL4-3): 45 ± 12 nM
- Selectivity index CC50/EC50 NL4-3 [3]: 3,088
- EC50 fold change compared to wild type NL4-3, A128T [4]: 7
- EC50 fold change compared to wild type NL4-3, H171Q [4]: 1
- EC50 fold change compared to wild type NL4-3, N222K [4]: 2
- EC50 fold change compared to wild type NL4-3, T174I [4]: 15
- EC50 fold change compared to wild type NL4-3, Y99H [4]: 2
- EC50 ratio (single/multiple-round infection) [5]: 196
- EC50 ([5]; Human immunodeficiency virus 1, NL43, MT4, read-out: EC50 in single-round infection): 8800 ± 300 nM
- AC50 ([6]; concentration for 50% maximum activation of multimerization): 43 ± 11 nM
- IN multimerization Plateau ([6]; maximum multimerization reached versus baseline): 440 ± 48%
- IC50 [7]: 420 ± 70 nM
- IC50 [8]: 170 ± 20 nM
- EC50 [9]: 18 ± 1 nM
- CC50 [10]: 139000 ± 29000 nM
- Fold change in EC50 relative to parental NL4-3, CAM2BBY (CRF02) ([11]; IN 124/125 AA): 1
- Fold change in EC50 relative to parental NL4-3, E0836M4 (D) ([11]; IN 124/125 AA): 1
- Fold change in EC50 relative to parental NL4-3, KER2008 (A) ([11]; IN 124/125 AA): 1
- Fold change in EC50 relative to parental NL4-3, NP1525 (CRF01) ([11]; IN 124/125 AA): 1
- Fold change in EC50 relative to parental NL4-3, NP1695 (CRF02) ([11]; IN 124/125 AA): 1
- Fold change in EC50 relative to parental NL4-3, TZA125 (C) ([11]; IN 124/125 AA): 0.4
- Fold change in EC50 relative to parental NL4-3, KSM4030 (A) ([11]; IN 124/125 GA): 2
- Fold change in EC50 relative to parental NL4-3, vGA (C) ([11]; IN 124/125 GA): 4
- Fold change in EC50 relative to parental NL4-3, 99ET14 (C) ([11]; IN 124/125 NA): 1
- Fold change in EC50 relative to parental NL4-3, NP1538 (B) ([11]; IN 124/125 NA): 2
- Fold change in EC50 relative to parental NL4-3, vNA_1 (B) ([11]; IN 124/125 NA): 1
- Fold change in EC50 relative to parental NL4-3, vNA_2 (CRF02) ([11]; IN 124/125 NA): 2
- Fold change in EC50 relative to parental NL4-3, vNV (B) ([11]; IN 124/125 NV): 1
- Fold change in EC50 relative to parental NL4-3, vSA_1 (B) ([11]; IN 124/125 SA): 2
- Fold change in EC50 relative to parental NL4-3, vSA_2 (CRF02) ([11]; IN 124/125 SA): 2
- Fold change in EC50 relative to parental NL4-3, vTA_1 (B) ([11]; IN 124/125 TA): 2
- Fold change in EC50 relative to parental NL4-3, vTA_2 (CRF02) ([11]; IN 124/125 TA): 2
